Results as given in ChEMBL document CHEMBL1157189, “S-Ribosylhomocysteine analogues with the carbon-5 and sulfur atoms replaced by a vinyl or (fluoro)vinyl unit” (Bioorg Med Chem, 2008).

Tested on: Bacillus subtilis
Experiment: Inhibition of CO2+ substituted Bacillus subtilis S-ribosyl-homocysteinase

Q: How did the Ki turn out when O[C@@H]1C[C@@H](/C=C/F)O[C@@H]1O (mixture of isomers) was run?
A: 96 µM
